From PubChem BioAssay AID602464 (Sanford-Burnham Center for Chemical Genomics, 2012) come the findings set out here.

The experiment relates to Gli-responsive luciferase reporter cells, SUFU pathway antagonism. The experiment can be described thus: blockers of Gli reporter signaling – cell-based, luciferase luminescence, uHTS hits, dose response (AID 602464).

Structures are written as SMILES. pIC50: −log10 of the molar value. Active and inactive are the calls of the source. Rule as the data show it: active = IC50 below about 20 µM; inactive = the rest.

With `CNc1nc(NCc2ccccc2)c2ccccc2n1`, the pIC50 is 4.70. As for `COCCNc1nc2c(c(=O)n(C)c(=O)n2C)n1Cc1cccc(C)c1`, the pIC50 was 5.14. In the case of `FC(F)Oc1ccc(-n2cc(-c3ccccc3)[n+]3c2CCCCC3)cc1`, the pIC50 was 5.09. The same measure, in the same setting: as for `CCCC(C)C(=O)Nc1nc(C)c(-c2csc(Nc3ccc(Cl)cc3)n2)s1` (centres undefined), the figure is 5.19; as for `CCOc1ccc(-n2c(O)c(/C=N/Nc3nc(C)cc(C)n3)c3ccccc3c2=O)cc1`, 5.15. `CN(Cc1nccs1)C(=O)c1cc(COc2cccc3cnccc23)on1`: the pIC50 is 4.92. Still for that read-out and setting: the same measure for `COc1cc(C(=O)NC2CCN(C)CC2)ccc1Nc1ncc2c(n1)N(C1CCCCC1)CCC(=O)N2C`: 5.80. Same read-out and setting: as for `Cc1ccc(-c2csc(NC(=O)c3c(C)noc3C)n2)s1`, the figure is 5.26. As for `CC(C)Cn1c(N)c(C(=O)COC(=O)C2Cc3ccccc3CN2S(C)(=O)=O)c(=O)n(C)c1=O` (centres undefined), the IC50 was > 20 µM (inactive).

With `O=c1c2ccccc2sc2c(CO)ccc(NCCN3CCCCC3)c12`, the IC50 is > 20 µM (inactive).

Consider `Cc1nc2cc(N3CCN(C)CC3)c(NC(=O)Cc3ccccc3)cc2c(=O)n1Cc1ccccc1`, for which the pIC50 is 4.91. The same measure, in the same setting: as for `O=C(c1cccc(S(=O)(=O)N2CCN(c3ccccc3)CC2)c1)N1CCCC(C(F)(F)F)C1` (centres undefined), the figure is 5.10; as for `CCCOc1ccc(Br)cc1CSC(=N)N`, 5.01; as for `CCOC(=O)c1sc2nc(CC(=O)OC)nc(NCc3ccc(Cl)cc3)c2c1C`, 5.03.

Broadly, the pIC50 is −log10 of the IC50, conventionally taken in molar units. The IC50 is the midpoint of a concentration-inhibition curve.
